{"source": "patent US20230149507A1", "about": "“TREATMENT OF ALT CANCERS” (INSTITUTO DE MEDICINA MOLECULAR JOÃO LOBO ANTUNES, priority 2019, published 2023)", "format_in_all_cases": "cell-based, human", "key": {"[1]": {"system": "U2OS cells", "assay": "Telomere FISH combined with EdU detection, RO-3306 control", "settings": "RO-3306 treatment; to lower extents than FANCM depletion", "experimental": "(§1) (A) Quantifications experiments for PML or RAD51 immunostaining combined with telomeric DNA FISH. POLD3 immunostaining combined with RAP1 immunostaining (green); and EdU detection combined with and telomeric DNA FISH. Experiments were performed on U2OS cells transfected with the indicated siRNAs and harvested 48 hours after transfection. Each dot represents an individual nucleus. A total of at least 300 nuclei from three independent experiments were analyzed for each sample. Bars and error bars are means and SDs. P values were calculated with a Mann-Whitney U test. ***P<0.001, ****P<0.0001.\n24 h after siRNA transfection cells were incubated in 10 μM RO-3306 (Selleckchem). 21.5 h later 10 μM EdU (Thermo Fisher Scientific) was added to the culture medium, followed by a 2.5 h incubation. Cells were first stained as for DNA FISH using the TelC-Cy3 probe and then washed twice with 1×PBS followed by EdU detection using the Click-iT EdU Alexa Fluor 488 Imaging Kit (Thermo Fisher Scientific) according to the manufacturer's instructions. DNA was counterstained with 100 ng/ml DAPI in 1×PBS and coverslips were mounted on slides in Vectashield. Image acquisition and analysis were as for DNA FISH."}, "[2]": {"system": "U2OS interphase cells", "assay": "Telomeric DNA FISH, number and area of telomeric foci, RO-3306 control", "settings": "siCt-transfected cells", "experimental": "FIG. 17. FANCM depletion alters telomeric DNA in interphase U2OS cells. (A) Western blot analysis of FANCM protein levels in U2OS cells transfected and treated with RO-3306 as indicated. Cells were harvested 48 hours after transfection. POLD3, RAD51 and PML levels were also analyzed. Beta Actin and LMB1 serve as loading controls. (B) Quantifications of FACS profiles of cells as in A stained with PI. […] R: RO-3306. (C)) Quantifications of numbers of telomeric foci per nucleus in experiments as in A. Each dot represents an individual nucleus. A total of at least 300 nuclei from three independent experiments were analyzed for each sample. Bars and error bars are means and SDs. P values were calculated with a Mann-Whitney U test. (D) Area distribution of telomeric foci areas in experiments as in C. 3D images were sum projected and areas of individual nuclear FISH signals were measured using DAPI staining to identify nuclei (not shown). A total of at least 300 nuclei from three independent experiments were analyzed for each sample. Areas of telomeric foci (in pixels) are binned into 25 intervals of 5-pixel width (x axis; numbers indicate bin centers) and plotted against frequencies (y axis; %). […] (E) Quantification of cells with at least 5 Large (L) foci in experiments as in C. P values were calculated with a two-tailed Student's t-test. *P<0.05, **P<0.005, ***P<0.001, ****P<0.0001. […]"}, "[3]": {"system": "U2OS cells", "assay": "PML, RAD51, POLD3 localization at telomeres (IF/FISH), RO-3306 control", "settings": "RO-3306 treatment", "experimental": "as §1\nCells grown on coverslips were incubated in CSK buffer for 7 min on ice. All subsequent treatments were performed at room temperature. Cells were fixed with 4% formaldehyde (Sigma-Aldrich) in 1×PBS for 10 min, permeabilized with CSK buffer for 5 min, and incubated in blocking solution (0.5% BSA, 0.1% Tween-20 in 1×PBS) for 1 h. Coverslips were incubated in blocking solution containing primary antibodies for 1 h, washed three times with 0.1% Tween-20 in 1×PBS for 10 min each, and incubated with secondary antibodies diluted in blocking solution for 50 min. DNA was counterstained with 100 ng/ml DAPI in 1×PBS. For combined IF and DNA FISH, cells were again fixed with 4% formaldehyde in 1×PBS for 10 min, washed three times with 1×PBS, incubated in 10 mM Tris-HCl pH 7.2 for 5 min and then denatured and hybridized with TelC-Cy3 probes as described above. DNA was counterstained with 100 ng/ml DAPI in 0.1 M Tris-HCl pH 7.2, 0.15 M NaCl, 0.08% Tween-20 and coverslips were mounted on slides in Vectashield. […]"}}, "data": [{"smiles": "O=C1NC(=NCc2cccs2)S/C1=C\\c1ccc2ncccc2c1", "note": "[RO-3306]", "values": [{"measurement": "incidence of telomeric EdU foci", "setting": "[1]", "result": "increased the incidence of telomeric EdU foci"}, {"measurement": "number of telomeric foci", "setting": "[2]; 10 μM RO-3306", "result": "less telomeric foci than control cells"}, {"measurement": "cells with at least 5 large foci", "setting": "[2]; RO-3306-treated", "result": "~15", "unit": "%"}, {"measurement": "number of telomeric PML foci", "setting": "[3]", "result": "did not substantially affect"}, {"measurement": "number of telomeric RAD51 foci", "setting": "[3]", "result": "did not substantially affect"}, {"measurement": "number of telomeric POLD3 foci", "setting": "[3]; less importantly than FANCM depletion", "result": "increased"}]}]}
